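How tested: cells in 96-well plates exposed to compound for 48 hours at five concentrations. The concentration for 50% growth inhibition is given as GI50. TGI: concentration producing complete growth inhibition.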 A value given as a limit tells only on which side of the number the result lay.

Some test systems named below: HCC-2998 colon; HCT-15 colon; KM12 colon; MOLT-4 leukemia; NCI-H23 lung; SF-268 CNS; SK-MEL-2 melanoma; SK-MEL-28 melanoma; TK-10 renal; UACC-62 melanoma.
What all share (test): growth of human tumour cells (NCI), 48 h

Take `C=C(CN(C)C)C(=O)c1ccccc1Cl`: the TGI was 61 µM in the experiment with HCC-2998 colon; 38.8 µM with HCT-15 colon; > 75 µM in the experiment on KM12 colon; > 75.2 µM in the experiment on MOLT-4 leukemia; 54.6 µM in the experiment on NCI-H23 lung; 42.7 µM with SF-268 CNS. The TGI with SK-MEL-2 melanoma was determined as 36.5 µM; in the experiment on SK-MEL-28 melanoma it was 19.4 µM; in the experiment with TK-10 renal it was 39.2 µM; in the experiment with UACC-62 melanoma it was 34.2 µM.

For `CN(CCCN1CCCC1)CCCN(C)C(=O)Cc1ccc(Cl)c(Cl)c1`, the TGI in the experiment with HCC-2998 colon was 20.6 µM; with HCT-15 colon, > 87 µM; in the experiment with KM12 colon, 60.5 µM; with MOLT-4 leukemia, 32.4 µM; in the experiment with NCI-H23 lung, 54.8 µM; in the experiment with SF-268 CNS, > 51.5 µM. Further, the TGI in the experiment with SK-MEL-2 melanoma stood at 28.2 µM; in the experiment on SK-MEL-28 melanoma, 5.26 µM; in the experiment with TK-10 renal it was 32.1 µM; in the experiment with UACC-62 melanoma it was 5.04 µM.

Consider `CC(NC(=O)c1ccc(OP(=O)(OCc2ccc([N+](=O)[O-])o2)N(C)CCCCCl)cc1)c1ccc(OCC2CCCCC2)c(C(N)=O)c1` (stereo not given), for which the TGI in the experiment with HCC-2998 colon is > 21.7 µM; with HCT-15 colon it was 8.14 µM; in the experiment on KM12 colon, 13.5 µM; with MOLT-4 leukemia, 6.89 µM; in the experiment on NCI-H23 lung, > 52.2 µM; in the experiment on SF-268 CNS, 10.9 µM. In addition, the TGI with SK-MEL-2 melanoma stood at 14.5 µM; in the experiment on SK-MEL-28 melanoma, 7 µM; in the experiment with TK-10 renal, 60.9 µM; with UACC-62 melanoma, 7.39 µM.

Take `COc1ccc(-n2nc(C(=O)c3ccccc3)c3nn4c(=O)cc(-c5ccccc5)nc4nc32)cc1`: the GI50 is 47.3 µM with HCC-2998 colon; 43.4 µM with HCT-15 colon; 46.5 µM in the experiment on KM12 colon; 34.8 µM in the experiment on MOLT-4 leukemia; 67.2 µM with NCI-H23 lung; 39.1 µM with SF-268 CNS. For the same molecule, the GI50 with SK-MEL-2 melanoma was 45.8 µM; with SK-MEL-28 melanoma, 38.3 µM; with TK-10 renal, 40.3 µM; in the experiment with UACC-62 melanoma it was 28.4 µM. Besides, the TGI with HCC-2998 colon was 76.7 µM; in the experiment on HCT-15 colon, > 100 µM; in the experiment on KM12 colon it was > 100 µM; in the experiment on MOLT-4 leukemia it was > 100 µM; in the experiment on NCI-H23 lung, > 100 µM; in the experiment with SF-268 CNS it was > 100 µM. Also, the TGI with SK-MEL-2 melanoma is > 100 µM; with SK-MEL-28 melanoma it was > 100 µM; with TK-10 renal, > 100 µM; in the experiment on UACC-62 melanoma, 97.6 µM.

For `Cc1c2ccccc2cc2cccc[n+]12`, the TGI is > 100 µM in the experiment with HCC-2998 colon; > 100 µM in the experiment with HCT-15 colon; 53 µM in the experiment with KM12 colon; > 100 µM in the experiment on MOLT-4 leukemia; 65.5 µM in the experiment on NCI-H23 lung; 40.4 µM in the experiment with SF-268 CNS. The TGI was > 100 µM with SK-MEL-2 melanoma, 70.5 µM with SK-MEL-28 melanoma, > 100 µM with TK-10 renal and > 100 µM with UACC-62 melanoma.

Regarding `COc1ccc2c3c([nH]c2c1)[C@H](C=C(C)C)N1C(=O)[C@@H]2CCCN2C(=O)[C@@H]1C3`, the TGI in the experiment with HCC-2998 colon, in the experiment with HCT-15 colon, in the experiment on KM12 colon, in the experiment with MOLT-4 leukemia, with NCI-H23 lung and in the experiment on SF-268 CNS was > 100 µM in each case. Further, the TGI was > 100 µM with SK-MEL-2 melanoma, 55.5 µM with SK-MEL-28 melanoma, > 100 µM in the experiment on TK-10 renal and > 100 µM in the experiment on UACC-62 melanoma.

These data come from PubChem BioAssay (NCI).
